# Source: EP2253308A1, “Pharmaceutical composition comprising microbubbles for targeted tumor therapy” (Ludwig-Maximilians-Universität München, priority 2009, dated 2010)
# System: 293/KDR human kidney carcinoma tissue cultures
# Assay: In vitro anti-proliferative efficacy, cell viability assay (formazan absorption) with or without ultrasound
# Type: cell-based
# Conditions: effect not affected by the application of ultrasound; 24 hours incubation; % of untreated cells
# Description: The anti-proliferative efficacy of doxorubicin-loaded microbubbles according to Example 2 was determined in an in vitro experiment using 293/KDR human kidney carcinoma tissue cultures.
# First, the cells were cultivated in 10% fetal calf serum activated Dulbecco's Modified Eagle Medium. Prior to the experiment, the cells were brought in suspension by trypsin/EDTA solution. A cell suspension of 200 µl containing about 6 x 10^4 cells was transferred into each well of a 96-well plate (Greiner Bio-One GmbH, Germany) and subsequently admixed with an aqueous solution of either doxorubicin, doxorubicin-loaded liposomes, or doxorubicin-loaded microbubbles (n = 10). The corresponding blank samples were prepared without doxorubicin (see Figure 3). Ultrasound with a frequency of 1 MHz, an intensity of 2 W/cm^2, and a duty cycle of 50% was applied directly onto each well using Sonitron 2000 (Rich-Mar Inc., USA). In order to avoid the presence of standing waves, the well plate was under laid with an absorbing gel pad.
# After 24 hours of incubation the cell metabolic activity was measured using a cell viability assay. […] Purple formazan produced by viable cells could be measured by its UV/Vis absorption using FluostarOmega plate reader (BMG Labtech GmbH, Offenburg, Germany) at a wavelength of 590 nm (measurement) and a wavelength of 630 nm (reference). […]
compound,measurement,value
COc1cccc2c1C(=O)c1c(O)c3c(c(O)c1C2=O)C[C@@](O)(C(=O)CO)C[C@@H]3O[C@H]1C[C@H](N)[C@H](O)[C@H](C)O1 [free doxorubicin],cell viability,62-64%
